Experimental data published in US6528516B1, “Methods for reducing intraocular pressure using A3 adenosine receptor antagonists” (Trustees of the University of Pennsylvania, The Center for …, priority 1998, dated 2003).

Test system: HCE cells
Assay: Free intracellular Ca2+ in HCE cells (fura-2)
Assay type: cell-based, human
Protocol: In other cells, stimulation of the A3-receptor can lead to an elevation of intracellular Ca^2+(Kohno et al., supra.), so intracellular Ca^2+was monitored in HCE cells to provide an additional physiologic assay for the presence of A3 receptors. HCE cells grown on coverslips for 24-48 hrs were loaded with 1-5 μM fura-2 AM for 30-45 min at room temperature. The cells were subject to a post-incubation interval of 20-40 minutes at room temperature before recording began. The coverslips were mounted on a Nikon Diaphot microscope and visualized with a ×40 oil-immersion fluorescence objective. The emitted fluorescence (510 nm) from 10-12 confluent cells was acquired at a sampling frequency of 1 Hz following excitation at 340 nm and 380 nm, and the ratio was determined with a Delta-Ram system and Felix software (Photon Technology International Inc., Princeton, N.J.).Cells were perfused with an isotonic solution consisting of (in mM) 105 NaCl, 6HEPES (acid), 4HEPES (Na^+), 2 CaCl2, 1 MgCl2, 4 KCl, 5 glucose and 90 mannitol, at an osmolality of 327 mOsm, pH 7.4. […]
where Rmin and Rmax are the ratio of fluorescence at […] in the absence of Ca^2+, and in the presence of saturating Ca^2+, respectively. R is the ratio measured experimentally. The S2f and S2b are the fluorescence emitted at 380 nM in the Ca^2+ free and Ca^2+ bound states respectively. […]

With CNC(=O)[C@H]1O[C@@H](n2cnc3c(NCc4cccc(I)c4)ncnc32)[C@H](O)[C@@H]1O [IB-MECA, N^6-(3-iodobenzyl)-adenosine-5′-N-methyluronamide] the “mean rise of intracellular Ca2+” value (100 nM IB-MECA) was 17 ± 5 nM and the “mean rise of intracellular Ca2+” value (1 μM IB-MECA) was 22 ± 6 nM.
